Our source for the MIC values is US6825172B2, “3-descladinosyl-6-O-carbamoyl and 6-O-carbonoyl macrolide antibacterial agents” (Janssen Pharmaceutica, NV, priority 2002, dated 2004).

Holding throughout (test): MIC, microdilution broth method (NCCLS)
Type in all cases: cell-based

Assay [1] relates to S. pneumoniae ATCC49619. The following applies: Streptococcus pneumoniae, read-out: MIC Values, D: S. pneumoniae ATCC49619. The method, then: (§1) Minimal inhibitory concentration (MIC) has been an indicator of in vitro antibacterial activity widely used in the art. The in vitro antimicrobial activity of the compounds was determined by the microdilution broth method following the test method from the National Committee for Clinical Laboratory Standards (NCCLS). This method is described in the NCCLS Document M7-A4, Vol.17, No.2, “Methods for Dilution Antimicrobial Susceptibility Test for Bacteria that Grow Aerobically—Fourth Edition”, which is incorporated herein by reference.
(§2) In this method two-fold serial dilutions of drug in cation adjusted Mueller-Hinton broth are added to wells in microdilution trays. The test organisms are prepared by adjusting the turbidity of actively growing broth cultures so that the final concentration of test organism after it is added to the wells is approximately 5×10^4 CFU/well.
(§3) Following inoculation of the microdilution trays, the trays are incubated at 35 °C for 16-20 hours and then read. […] The amount of growth in the wells containing the test compound is compared with the amount of growth in the growth-control wells (no test compound) used in each tray. As set forth in Table 1, compounds of the present invention were tested against a variety of Gram positive and Gram negative pathogenic bacteria resulting in a range of activities depending on the organism tested.

Assay [2] deals with H. influenzae ATCC49247. As to conditions: Haemophilus influenzae, read-out: MIC Values, E: H. influenzae ATCC49247. As for the experimental part: as §1, §2, §3
Assay [3] relates to E. coli OC2605. As to conditions: Escherichia coli. The method, then: as §1, §2, §3
Assay [4] deals with E. faecalis ATCC29212. The following applies: Enterococcus faecalis, read-out: MIC Values, C: E. faecalis ATCC29212. The method, then: as §1, §2, §3
Assay [5] concerns S. aureus ATCC29213. The following applies: Staphylococcus aureus, read-out: MIC Values, B: S. aureus ATCC29213. The method, then:
as §1, §2, §3

The mark [6] stands for this setting: Table 2, 3,6-Dicarbamoyl Macrolide Derivatives.
[7] abbreviates: Table 2, 3,6-Dicarbamoyl Macrolide Derivatives, read-out: MIC Values, A: E. coil OC2605.
Where [8] appears, read: Table 1, 6-Carbamoyl-3-Acyl Macrolide Derivatives.
The mark [9] stands for this setting: Table 1, 6-Carbamoyl-3-Acyl Macrolide Derivatives, read-out: MIC Values, A: E. coli OC2605.

Converted amounts (≈) assume the structure as drawn. Where two headings read alike, the source gives them in different places.

On to `CC[C@H]1OC(=O)[C@H](C)[C@@H](OC(=O)N(C)C(C)C)[C@H](C)[C@@H](O[C@@H]2O[C@H](C)C[C@H](N(C)C)[C@H]2O)[C@](C)(OC(=O)NC/C=C/c2ccc(-c3ncccn3)cc2)C[C@@H](C)C(=O)[C@H](C)[C@H]2NC(=O)O[C@@]21C` [Compound 57], for which the MIC is 0.06 µg/mL (≈ 0.064 µM) in assay [1] (setting [6]); 4 µg/mL (≈ 4.27 µM) in assay [2] (setting [6]); 16 µg/mL (≈ 17.1 µM) in assay [3] (setting [7]); 0.5 µg/mL (≈ 0.534 µM) in assay [4] (setting [6]); 0.5 µg/mL (≈ 0.534 µM) in assay [5] (setting [6]).
Consider `CC[C@H]1OC(=O)[C@H](C)[C@@H](OC(=O)Cc2cccnc2)[C@H](C)[C@@H](O[C@@H]2O[C@H](C)C[C@H](N(C)C)[C@H]2O)[C@](C)(OC(=O)NC/C=C/c2ccnc3ccccc23)C[C@@H](C)C(=O)[C@H](C)[C@H]2NC(=O)O[C@@]21C` [Compound 34], for which the MIC in assay [1] (setting [8]) turned out to be 0.03 µg/mL (≈ 0.0323 µM); in assay [2] (setting [8]) it was 2 µg/mL (≈ 2.15 µM); in assay [3] (setting [9]), 8 µg/mL (≈ 8.6 µM); in assay [4] (setting [8]), 0.25 µg/mL (≈ 0.269 µM); in assay [5] (setting [8]) it was 0.5 µg/mL (≈ 0.538 µM).
Taken in the same sequence, the figures for `CC[C@H]1OC(=O)[C@H](C)[C@@H](OC(=O)Cc2cccnc2)[C@H](C)[C@@H](O[C@@H]2O[C@H](C)C[C@H](N(C)C)[C@H]2O)[C@](C)(OC(=O)NC/C=C/c2ccc(-c3ncccn3)cc2)C[C@@H](C)C(=O)[C@H](C)[C@H]2NC(=O)O[C@@]21C` [Compound 4, 3-Pyridineacetic acid, (3aS,4R,7R,8S,9S,10R,11R,13R,15R,15aR)-4-ethyltetradecahydro-3a,7,9,11,13,15-hexamethyl-2,6,14-trioxo-11-[[[[(2E)-3-[4-(2-pyrimidinyl)phenyl]-2-propenyl]amino]carbonyl]oxy]-10-[[3,4,6-trideoxy-3-(dimethylamino)-β-D-xylo-hexopyranosyl]oxy]-2H-oxacyclotetradecino[4,3-d]oxazol-8-yl ester] were 0.06 µg/mL (≈ 0.0627 µM), 2 µg/mL (≈ 2.09 µM), 8 µg/mL (≈ 8.36 µM), 0.25 µg/mL (≈ 0.261 µM) and 0.25 µg/mL (≈ 0.261 µM).
Taken in the same sequence, the figures for `CC[C@H]1OC(=O)[C@H](C)[C@@H](OC(=O)Cc2cccnc2)[C@H](C)[C@@H](O[C@@H]2O[C@H](C)C[C@H](N(C)C)[C@H]2O)[C@](C)(OC(=O)NC/C=C/c2ccc(Br)nc2)C[C@@H](C)C(=O)[C@H](C)[C@H]2NC(=O)O[C@@]21C` [Compound 28] were < 0.015 µg/mL, 1 µg/mL (≈ 1.04 µM), 8 µg/mL (≈ 8.34 µM), 0.25 µg/mL (≈ 0.261 µM) and 0.5 µg/mL (≈ 0.521 µM).
Turning to `CC[C@H]1OC(=O)[C@H](C)[C@@H](OC(=O)N2CCCCC2)[C@H](C)[C@@H](O[C@@H]2O[C@H](C)C[C@H](N(C)C)[C@H]2O)[C@](C)(OC(=O)NC/C=C/c2ccc(-c3ncccn3)cc2)C[C@@H](C)C(=O)[C@H](C)[C@H]2NC(=O)O[C@@]21C` [Compound 64], the MIC in assay [1] (setting [6]) was 0.06 µg/mL (≈ 0.0632 µM); in assay [2] (setting [6]), 8 µg/mL (≈ 8.43 µM); in assay [3] (setting [7]), > 16 µg/mL; in assay [4] (setting [6]), 0.5 µg/mL (≈ 0.527 µM); in assay [5] (setting [6]) it was 1 µg/mL (≈ 1.05 µM).
For `CC[C@H]1OC(=O)[C@H](C)[C@@H](OC(=O)N(C)c2cccnc2)[C@H](C)[C@@H](O[C@@H]2O[C@H](C)C[C@H](N(C)C)[C@H]2O)[C@](C)(OC(=O)NC/C=C/c2ccc(-c3ncccn3)cc2)C[C@@H](C)C(=O)[C@H](C)[C@H]2NC(=O)O[C@@]21C` [Compound 60], in that order: 0.06 µg/mL (≈ 0.0617 µM), 4 µg/mL (≈ 4.11 µM), > 16 µg/mL, 0.5 µg/mL (≈ 0.514 µM) and 1 µg/mL (≈ 1.03 µM).
Regarding `CC[C@H]1OC(=O)[C@H](C)[C@@H](OC(=O)C(C)C)[C@H](C)[C@@H](O[C@@H]2O[C@H](C)C[C@H](N(C)C)[C@H]2O)[C@](C)(OC(=O)NC/C=C/c2ccc(-c3ncccn3)cc2)C[C@@H](C)C(=O)[C@H](C)[C@H]2NC(=O)O[C@@]21C` [Compound 1, Propanoic acid, 2-methyl-, (3aS,4R,7R,8S,9S,10R, 11R,13R,15R,15aR)-4-ethyltetradecahydro-3a,7,9,11,13,15-hexamethyl-2,6,14-trioxo-11-[[[[(2E)-3-[4-(2-pyrimidinyl)phenyl]-2-propenyl]amino]carbonyl]oxy]-10-[[3,4,6-trideoxy-3-(dimethylamino)-β-D-xylo-hexopyranosyl]oxy]-2H-oxacyclotetradecino[4,3-d]oxazol-8-yl ester], the MIC in assay [1] (setting [8]) stood at 0.06 µg/mL (≈ 0.0661 µM); in assay [2] (setting [8]), 1 µg/mL (≈ 1.1 µM); in assay [3] (setting [9]), 16 µg/mL (≈ 17.6 µM); in assay [4] (setting [8]), 0.25 µg/mL (≈ 0.275 µM); in assay [5] (setting [8]) it was 0.5 µg/mL (≈ 0.551 µM).
Turning to `CC[C@H]1OC(=O)[C@H](C)[C@@H](OC(=O)N(CC)Cc2cccnc2)[C@H](C)[C@@H](O[C@@H]2O[C@H](C)C[C@H](N(C)C)[C@H]2O)[C@](C)(OC(=O)NC/C=C/c2ccc(-c3ncccn3)cc2)C[C@@H](C)C(=O)[C@H](C)[C@H]2NC(=O)O[C@@]21C` [Compound 61], the MIC in assay [1] (setting [6]) is 0.06 µg/mL (≈ 0.06 µM); in assay [2] (setting [6]) it was 8 µg/mL (≈ 8 µM); in assay [3] (setting [7]), > 16 µg/mL; in assay [4] (setting [6]), 0.5 µg/mL (≈ 0.5 µM); in assay [5] (setting [6]), 1 µg/mL (≈ 1 µM).
